According to US10183944B2 (Asana Biosciences, LLC, priority 2011, dated 2019):
“And” between values parts separate entries of the source, which are not always exact repeats. Identical values can stand only once. Marks after values point to notes of the source that are not given here.

Test system: Arthus reaction in female c57BL/6 mice
Assay: In vivo acute study: Arthus reaction model in mice
Set-up: species or system mouse
Conditions: for OD % Inhibition: dye extravasation (OD 610 nm)
Description: Arthus reaction is a type of local type III hypersensitivity reaction. Type III hypersensitivity reactions are immune complex-mediated, and involve the deposition of antigen/antibody complexes mainly in the vascular walls, serosa (pleura, pericardium, synovium), and glomeruli. This involves formation of antigen/antibody complexes after the intradermal injection of an antibody. If the animal was previously injected with antigen and dye (has circulating antigen), an Arthus reaction occurs. This manifests as local vasculitis due to deposition of immune complexes in dermal blood vessels. Activation of complement and recruitment of PMNs ensue, resulting in an inflammatory response and extravasation of dye to the skin. Compounds which can inhibit this complex process can have therapeutic implications in wide range of inflammatory and auto-immune disorders. See, Pine, “Inflammation and bone erosion are suppressed in models of rheumatoid arthritis following treatment with a novel Syk inhibitor”; Clin. Immunol. (2007) 124 (3): 244-57; and Sylvia, “R-406, an Orally Available Spleen Tyrosine Kinase Inhibitor Blocks Fc Receptor Signaling and Reduces Immune Complex-Mediated Inflammation”, JPET 319:998-1008, 2006, which are herein incorporated by reference.
Female c57BL/6 mice were given an antigen injection in which the antigen was 0.1% Ovalbumin (OVA) in PBS containing 1% Evans blue (EB) at the concentration of 10 mL/kg intravenously under Isoflurane anesthesia [2.5 mg/mouse with a body weight of 25 g]. Ten minutes after antigen injection; the animals were injected with the rabbit anti-OVA IgG (50 μg in 25 μL/site) (Polysciences; Cat #23744) intradermally on the shaved back at two top locations. Animals were also injected with phosphate buffered saline (PBS, 25 μL) intradermally on the back at two bottom and opposite locations to serve as negative control. The mice were euthanized by cervical dislocation 4 hours after antigen (Ovalbumin) challenge. Skin tissue was assessed for edema by tracing the edema area on to a transparent plastic sheet. Punch biopsies of the injection sites were collected.
Edema area was measured manually by scale. Two diameters were taken and averaged for each animal.
Punch biopsies of the injection sites (using 10 mm skin biopsy punches) were incubated in 2 mL of sodium sulfate: acetone mixture (0.6+1.4 mL) at room temperature for 16-18 hours. The supernatants were removed from digested tissues by centrifuging at 4000 rpm for 10 minutes, filtered and were read spectrophotometrically at 610 nm.
The percent inhibition of dye leakage was calculated with respect to control by the formula: […]
The percent inhibition of edema area was calculated with respect to control by the formula: […]
Means of different groups were compared with control using One way ANOVA followed by Dunnett's test. Significance was represented as follows.

| SMILES | Edema area % Inhibition (dose 3 mg/Kg) | Edema area % Inhibition (dose 10 mg/Kg, hydrochloride) | Edema area % Inhibition (dose 30 mg/Kg, hydrochloride) | OD % Inhibition (dose 3 mg/Kg) | OD % Inhibition (dose 30 mg/Kg, hydrochloride) | Edema area % Inhibition (dose 30 mg/Kg) | OD % Inhibition (dose 30 mg/Kg) | Edema area % Inhibition (dose 10 mg/Kg) | OD % Inhibition (dose 10 mg/Kg) |
| --- | --- | --- | --- | --- | --- | --- | --- | --- | --- |
| Cl.O=c1[nH]ncc2nc(-c3ccccc3)nc(Nc3ccc(CN4CCNCC4)cc3)c12 [Example 7, 2-phenyl-4-(4-(piperazin-1-ylmethyl)phenylamino)pyrimido[4,5-d]pyridazin-5(6H)-one hydrochloride] | 41*** % | 45*** % and 53*** % and 30% | 68*** % and 74*** % | 40*** % | 67*** % and 65*** % | – | – | – | – |
| O=C(O)C1CC12CCN(c1ccc(Nc3nc(-c4ccccc4)nc4cn[nH]c(=O)c34)cc1)CC2 (stereo not shown) [Example 19, 6-(4-(5-oxo-2-phenyl-5,6-dihydropyrimido[4,5-d]pyridazin-4-ylamino)phenyl)-6-azaspiro[2.5]octane-1-carboxylic acid] | 48*** % | – | – | 53*** % | – | 60*** % | 60*** % | – | – |
| O=C(O)C1CCN(c2ccc(Nc3nc(-c4ccccc4)nc4cn[nH]c(=O)c34)cc2)CC1 [Example 13, 1-(4-(5-oxo-2-phenyl-5,6-dihydropyrimido[4,5-d]pyridazin-4-ylamino)phenyl)piperidine-4-carboxylic acid] | – | – | – | – | – | 40** % | 30% | 53*** % | 27% |
